Assay results published in article PMC12155096 (International Journal of Molecular Sciences, 2025).
Where a name gives a salt, the structure may show the parent alone. Read-outs that look alike come from different tables or passages of the source.

Key:
human CYP2C9 = human CYP2C9 (Homo sapiens, UniProt P11712); assay: biochemical
human CYP1A2 = biological target: T1, human CYP1A2 (Homo sapiens, UniProt P05177); assay: biochemical
T1 sequence (P05177 1-516): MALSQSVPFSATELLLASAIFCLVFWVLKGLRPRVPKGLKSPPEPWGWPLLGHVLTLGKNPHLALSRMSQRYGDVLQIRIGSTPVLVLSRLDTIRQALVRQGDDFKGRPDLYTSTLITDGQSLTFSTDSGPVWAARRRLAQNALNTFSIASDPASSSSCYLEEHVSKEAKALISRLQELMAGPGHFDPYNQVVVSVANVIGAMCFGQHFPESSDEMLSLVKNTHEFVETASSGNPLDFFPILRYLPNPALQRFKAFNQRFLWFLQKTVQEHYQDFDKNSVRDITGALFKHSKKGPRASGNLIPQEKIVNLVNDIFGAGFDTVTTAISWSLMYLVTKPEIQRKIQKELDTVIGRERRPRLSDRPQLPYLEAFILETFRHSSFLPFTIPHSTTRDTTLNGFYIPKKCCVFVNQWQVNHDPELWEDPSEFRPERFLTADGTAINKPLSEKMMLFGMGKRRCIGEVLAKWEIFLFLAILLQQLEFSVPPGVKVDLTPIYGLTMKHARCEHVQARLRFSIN

human CYP2D6 = human CYP2D6 (Homo sapiens, UniProt P10635)
CYP3A4 = CYP3A4 (Homo sapiens, UniProt P08684); assay: biochemical
human CYP2C19 = human CYP2C19 (Homo sapiens, UniProt P33261); assay: biochemical
[1] = CYP2C9 AC50 (half-maximal activity concentration)
[2] = CYP1A2 AC50 (half-maximal activity concentration)
[3] = CYP3A4 AC50 (half-maximal activity concentration)
[4] = CYP2C19 AC50 (half-maximal activity concentration)

Sequence of CYP3A4 (P08684 whole entry): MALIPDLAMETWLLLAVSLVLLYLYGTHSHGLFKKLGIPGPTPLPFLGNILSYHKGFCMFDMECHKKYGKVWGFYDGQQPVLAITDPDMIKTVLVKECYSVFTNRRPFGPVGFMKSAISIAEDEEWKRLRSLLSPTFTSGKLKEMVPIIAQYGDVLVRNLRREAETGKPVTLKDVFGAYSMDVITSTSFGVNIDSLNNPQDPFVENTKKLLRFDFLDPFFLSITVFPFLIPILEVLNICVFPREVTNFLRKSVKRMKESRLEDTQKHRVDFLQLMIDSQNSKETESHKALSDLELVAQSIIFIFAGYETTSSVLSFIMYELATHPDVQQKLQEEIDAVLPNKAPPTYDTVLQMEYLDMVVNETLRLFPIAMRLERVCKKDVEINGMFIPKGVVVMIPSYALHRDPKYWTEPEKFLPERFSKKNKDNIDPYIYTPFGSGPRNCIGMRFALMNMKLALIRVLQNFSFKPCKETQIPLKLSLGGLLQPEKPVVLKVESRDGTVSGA
Sequence of human CYP2D6 (P10635 whole entry): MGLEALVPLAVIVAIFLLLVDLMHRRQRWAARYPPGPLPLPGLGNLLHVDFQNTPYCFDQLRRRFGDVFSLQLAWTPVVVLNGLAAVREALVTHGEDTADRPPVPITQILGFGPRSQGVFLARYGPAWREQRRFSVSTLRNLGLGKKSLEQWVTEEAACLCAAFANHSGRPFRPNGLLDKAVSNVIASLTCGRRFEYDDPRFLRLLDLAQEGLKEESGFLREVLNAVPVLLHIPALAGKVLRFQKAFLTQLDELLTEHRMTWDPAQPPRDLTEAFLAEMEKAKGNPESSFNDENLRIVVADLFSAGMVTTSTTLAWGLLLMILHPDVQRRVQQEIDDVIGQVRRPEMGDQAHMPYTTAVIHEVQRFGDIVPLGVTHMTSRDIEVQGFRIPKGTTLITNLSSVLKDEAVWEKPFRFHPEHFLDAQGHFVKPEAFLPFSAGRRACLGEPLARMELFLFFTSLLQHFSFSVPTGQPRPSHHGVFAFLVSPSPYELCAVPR
Sequence of human CYP2C9 (P11712 whole entry): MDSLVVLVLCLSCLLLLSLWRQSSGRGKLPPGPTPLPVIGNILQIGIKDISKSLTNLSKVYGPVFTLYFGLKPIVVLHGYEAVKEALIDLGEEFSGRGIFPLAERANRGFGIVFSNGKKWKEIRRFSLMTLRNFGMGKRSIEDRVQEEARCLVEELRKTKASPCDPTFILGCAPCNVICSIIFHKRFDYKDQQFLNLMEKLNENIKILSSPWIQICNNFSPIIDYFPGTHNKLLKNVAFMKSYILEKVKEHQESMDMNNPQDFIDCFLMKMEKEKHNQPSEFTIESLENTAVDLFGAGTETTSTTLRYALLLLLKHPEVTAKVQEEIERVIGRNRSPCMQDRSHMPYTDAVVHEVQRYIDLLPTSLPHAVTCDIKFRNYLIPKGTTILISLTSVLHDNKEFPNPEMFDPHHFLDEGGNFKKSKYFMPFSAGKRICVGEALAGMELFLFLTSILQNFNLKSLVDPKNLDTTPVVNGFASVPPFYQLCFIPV
Sequence of human CYP2C19 (P33261 whole entry): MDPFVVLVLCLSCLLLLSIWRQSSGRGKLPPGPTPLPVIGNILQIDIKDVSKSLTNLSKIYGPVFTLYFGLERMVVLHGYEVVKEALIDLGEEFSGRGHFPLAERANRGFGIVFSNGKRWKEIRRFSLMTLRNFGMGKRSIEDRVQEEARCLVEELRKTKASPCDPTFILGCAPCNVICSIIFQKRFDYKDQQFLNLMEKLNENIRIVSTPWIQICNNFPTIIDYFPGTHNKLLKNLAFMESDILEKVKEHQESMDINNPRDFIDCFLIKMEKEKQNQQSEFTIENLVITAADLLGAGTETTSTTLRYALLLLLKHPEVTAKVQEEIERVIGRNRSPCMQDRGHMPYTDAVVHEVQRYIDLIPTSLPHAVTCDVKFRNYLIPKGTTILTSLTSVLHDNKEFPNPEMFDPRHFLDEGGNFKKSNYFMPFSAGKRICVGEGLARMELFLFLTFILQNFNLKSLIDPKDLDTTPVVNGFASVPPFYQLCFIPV

CCOC(=O)C1OC1(C)c1ccccc1 (centres unmarked) [Ethyl methylphenylglycidate]
AC50 (human CYP2C9; [1]): 61.4 µM | AC50 (human CYP1A2; [2]): 34.6 µM | CYP2D6 AC50 (half-maximal activity concentration) (human CYP2D6): Inconclusive inhibitor | AC50 (CYP3A4; [3]): 37.7 µM | AC50 (human CYP2C19; [4]): 45.4 µM

CCOC(=O)COC(=O)c1ccccc1C(=O)OCC [Ethyl phthalyl ethyl glycolate]
AC50 (human CYP2C9): 31.9 µM | AC50 (human CYP1A2): 7.68 µM | CYP2D6 AC50 (half-maximal activity concentration) (human CYP2D6): Inactive | AC50 (CYP3A4): 47.4 µM | AC50 (human CYP2C19): 20.8 µM

CCOC(=O)C(C)Oc1ccc(Oc2nc3ccc(Cl)cc3o2)cc1 (centres unmarked) [Fenoxaprop-ethyl]
AC50 (human CYP2C9; [1]): 44 µM | AC50 (human CYP1A2; [2]): 23.9 µM | CYP2D6 AC50 (half-maximal activity concentration) (human CYP2D6): Inconclusive inhibitor | AC50 (CYP3A4; [3]): 28.4 µM | AC50 (human CYP2C19; [4]): 53 µM

N#Cc1c[nH]cc1-c1cccc2c1OC(F)(F)O2 [Fludioxonil]
AC50 (human CYP2C9; [1]): 18.6 µM | AC50 (human CYP1A2; [2]): 1.53 µM | CYP2D6 AC50 (half-maximal activity concentration) (human CYP2D6): Inactive | AC50 (CYP3A4; [3]): 5.11 µM | AC50 (human CYP2C19; [4]): 5.3 µM

CC(C)N(C(=O)COc1nnc(C(F)(F)F)s1)c1ccc(F)cc1 [Flufenacet]
AC50 (human CYP2C9; [1]): 35.6 µM | AC50 (human CYP1A2; [2]): 37 µM | CYP2D6 AC50 (half-maximal activity concentration) (human CYP2D6): Inactive | AC50 (CYP3A4; [3]): 19.3 µM | AC50 (human CYP2C19; [4]): 3.4 µM

N#Cc1cc(I)c(O)c(I)c1 [Ioxynil]
AC50 (human CYP2C9; [1]): 22.4 µM | AC50 (human CYP1A2; [2]): 46.2 µM | CYP2D6 AC50 (half-maximal activity concentration) (human CYP2D6): Inactive | AC50 (CYP3A4; [3]): 38.5 µM | AC50 (human CYP2C19; [4]): 83.2 µM

O=C(NC(=O)c1c(F)cccc1F)Nc1cc(Cl)c(OC(F)(F)C(F)C(F)(F)F)cc1Cl (centres unmarked) [Lufenuron]
AC50 (human CYP2C9; [1]): 11.3 µM | AC50 (human CYP1A2; [2]): 35.7 µM | CYP2D6 AC50 (half-maximal activity concentration) (human CYP2D6): Inactive | AC50 (CYP3A4; [3]): 7.45 µM | AC50 (human CYP2C19; [4]): 10.9 µM

CCCCCC1C(=O)CCC1CC(=O)OC (centres unmarked) [Methyl dihydrojasmonate]
AC50 (human CYP2C9; [1]): 28.4 µM | AC50 (human CYP1A2; [2]): 27.2 µM | CYP2D6 AC50 (half-maximal activity concentration) (human CYP2D6): Inconclusive inhibitor | AC50 (CYP3A4; [3]): 8.73 µM | AC50 (human CYP2C19; [4]): 2.53 µM

BrC(Br)C(Br)(Br)Br [Pentabromoethane]
AC50 (human CYP2C9; [1]): 22.7 µM | AC50 (human CYP1A2; [2]): 33.2 µM | CYP2D6 AC50 (half-maximal activity concentration) (human CYP2D6): Inconclusive inhibitor | AC50 (CYP3A4; [3]): 16.1 µM | AC50 (human CYP2C19; [4]): 48.6 µM

Clc1nc(Cl)c(Cl)c(Cl)c1Cl [Pentachloropyridine]
AC50 (human CYP2C9; [1]): 62.4 µM | AC50 (human CYP1A2; [2]): 41.8 µM | CYP2D6 AC50 (half-maximal activity concentration) (human CYP2D6): Inactive | AC50 (CYP3A4; [3]): 8.61 µM | AC50 (human CYP2C19; [4]): 61.1 µM

CSc1nc(NC(C)C)nc(NC(C)C)n1 [Prometryn]
AC50 (human CYP2C9; [1]): 58.2 µM | AC50 (human CYP1A2; [2]): 17.3 µM | CYP2D6 AC50 (half-maximal activity concentration) (human CYP2D6): Inactive | AC50 (CYP3A4; [3]): 29.1 µM | AC50 (human CYP2C19; [4]): 71 µM

CC(C)(C)c1ccc(CSc2cnn(C(C)(C)C)c(=O)c2Cl)cc1 [Pyridaben]
AC50 (human CYP2C9; [1]): 7.2 µM | AC50 (human CYP1A2; [2]): 25.6 µM | CYP2D6 AC50 (half-maximal activity concentration) (human CYP2D6): Inactive | AC50 (CYP3A4; [3]): 4.7 µM | AC50 (human CYP2C19; [4]): 8.29 µM

CC(COc1ccc(Oc2ccccc2)cc1)Oc1ccccn1 (centres unmarked) [Pyriproxyfen]
AC50 (human CYP2C9; [1]): 12 µM | AC50 (human CYP1A2; [2]): 17.3 µM | CYP2D6 AC50 (half-maximal activity concentration) (human CYP2D6): Inactive | AC50 (CYP3A4; [3]): 29.7 µM | AC50 (human CYP2C19; [4]): 12.4 µM

CCCCCCCCOS(=O)(=O)O [Sodium octyl sulfate]
AC50 (human CYP2C9): 30.6 µM | AC50 (human CYP1A2): 68.4 µM | CYP2D6 AC50 (half-maximal activity concentration) (human CYP2D6): Inactive | AC50 (CYP3A4): 62.6 µM | AC50 (human CYP2C19): 52.3 µM

O=C(NC(=O)c1c(F)cccc1F)Nc1cc(Cl)c(F)c(Cl)c1F [Teflubenzuron]
AC50 (human CYP2C9; [1]): 46.5 µM | AC50 (human CYP1A2; [2]): 32.5 µM | CYP2D6 AC50 (half-maximal activity concentration) (human CYP2D6): Inactive | AC50 (CYP3A4; [3]): 57.7 µM | AC50 (human CYP2C19; [4]): 69.2 µM

IC(I)=C(I)I [Tetraiodoethene]
AC50 (human CYP2C9; [1]): 3.57 µM | AC50 (human CYP1A2; [2]): 13 µM | CYP2D6 AC50 (half-maximal activity concentration) (human CYP2D6): Inactive | AC50 (CYP3A4; [3]): 19.5 µM | AC50 (human CYP2C19; [4]): 9.09 µM

O=CC(Br)(Br)Br [Tribromoacetaldehyde]
AC50 (human CYP2C9; [1]): 18.4 µM | AC50 (human CYP1A2; [2]): 29.6 µM | CYP2D6 AC50 (half-maximal activity concentration) (human CYP2D6): Inconclusive inhibitor | AC50 (CYP3A4; [3]): 10.2 µM | AC50 (human CYP2C19; [4]): 53.3 µM

O=P(Oc1ccccc1)(Oc1ccccc1)Oc1ccccc1 [Triphenyl phosphate]
AC50 (human CYP2C9; [1]): 6.87 µM | AC50 (human CYP1A2; [2]): 10.8 µM | CYP2D6 AC50 (half-maximal activity concentration) (human CYP2D6): Inactive | AC50 (CYP3A4; [3]): 6.42 µM | AC50 (human CYP2C19; [4]): 6.53 µM

c1ccc(-c2ccccc2-c2ccccc2)cc1 [o-Terphenyl]
AC50 (human CYP2C9; [1]): 26.5 µM | AC50 (human CYP1A2; [2]): 2.91 µM | CYP2D6 AC50 (half-maximal activity concentration) (human CYP2D6): Inactive | AC50 (CYP3A4; [3]): 24.7 µM | AC50 (human CYP2C19; [4]): 15.9 µM
